Measurements as given in article PMC12867150, “A fungi-derived cyclic peptide enhances Th9-mediated antitumor immunity by targeting ZAP70 and SREBP1” (The Journal of Clinical Investigation, 2025).
“And” between values parts separate entries of the source, which are not always exact repeats. Equal values may be shown once.

Experiments:
endogenous CD8+ T cells = assay: Flow cytometry of endogenous CD8+ T cells in spleen, LN, tumor (Figure 2F-G, S1F-I); type: in vivo, mouse; conditions: for Frequencies of endogenous CD8⁺ T cells in LN: Supplemental Figure 1I left; for Number of endogenous CD8⁺ T cells in LN: Supplemental Figure 1I right; for CD8 gate number: representative flow plot
Method: C57BL/6 mice were subcutaneously injected with 5 × 10^5 B16-OVA melanoma cells. Five days after tumor implantation, mice received an intravenous infusion of 2 × 10^6 in vitro–differentiated Th9 cells (cultured for 5 days), which were derived from OT-II CD45.1 donor mice, accompanied by 4 × 10^5 OVA peptide–pulsed DCs via the tail vein. To enhance T cell engraftment and facilitate lymphodepletion, a single intraperitoneal injection of cyclophosphamide (200 mg/kg, Sigma, catalog C0768) was administered 1 day prior to T cell transfer. Mice were euthanized at designated time points for the collection and analysis of spleens, tumor-draining lymph nodes, and tumor tissues.
Details regarding staining panels (human and mouse), reagents (including clones and catalog numbers), acquisition settings, compensation/controls, and analysis procedures are provided in Supplemental Methods.
BioLegend, Cat. No. 422301 or Mouse TruStain FcX™, BioLegend, Cat. No. 101319) for 10 minutes at 4°C. For surface marker detection, cells were stained with fluorochrome-conjugated monoclonal antibodies in 96-well V-bottom plates and incubated on ice for 30 minutes. After staining, cells were washed twice and resuspended in FACS buffer for analysis.
Prior to intracellular cytokine staining, cells were restimulated for 4 hours with PMA (Absin, Cat. No. abs9107), ionomycin (Sigma-Aldrich, Cat. No. I0634), and brefeldin A (MedChemExpress, Cat. No. HY-16592). For intracellular cytokine staining, cells were first surface-stained as described above, then fixed and permeabilized using the BD Cytofix/Cytoperm™ kit (BD Biosciences, Cat. No. 554714) according to the manufacturer ’s protocol. Intracellular proteins were stained with directly conjugated antibodies targeting IL-9, IL-17a, IL-4, IFN-γ, TNF-α, FOXP3, p-ZAP70, Perforin, and […]
Antibodies used for mouse samples included those against IL-9 (PE, clone RM9A4, Biolegend, Cat. No. 514104), IFN-γ (PE, clone XMG1.2, Biolegend, Cat. No.
Cat. No. 103138), CD4 (APC/Cy7, clone E-AB-F1353UJ, Elabscience, Cat. No.
AF18028), CD8α (PerCP/Cy5.5, clone E-AB-F1104UJ, Elabscience, Cat. No. […]
clone E-AB-F1187UH, Elabscience, Cat. No. AF19854), TNF-α (BV421, clone MP6-XT22, Biolegend, Cat. No. 506328), FOXP3 (PE, clone FJK-16s, eBioscience, Cat. No.
Perforin (APC, clone S16009A, Biolegend, Cat. No. 154303) and Granzyme B (APC, […]
clone QA16A02, Biolegend, Cat. No. 372203). […]
Figure S1. EpA enhances immune responses. […]
I) Representative flow-cytometric plots of endogenous CD4⁺ and CD8⁺ T cells in spleens (F), LNs (G), and tumors (H); frequencies and absolute numbers of endogenous CD4⁺ (G) and CD8⁺ (I) T cells in LNs are quantified. (J and K) […]
Statistical analysis was performed using two-way ANOVA with Tukey’s post hoc test (A), one-way ANOVA with Tukey’s post hoc test (B) or two-tailed unpaired Student’s t-test (D and G–M). ns, not significant. *p < 0.05, **p < 0.01, ****p < 0.0001.
(also on this page, place not known: Mouse weight (g) CtrlEpA CtrlEpA CtrlEpA0 I CD45.1+ T cells (%) CtrlEpA CD4+ T cells (%) CtrlEpA CtrlEpA CtrlEpA FSC CD8 CD8 FSC FSC FSC BNumber of CD45.1+ T cells (×103 per mgĎ Number of CD4+ T cells (×104 per mgĎ DC (%)NK cells (%) NK cells (%) DC (%) Number of DC (×103 per mg) Number of NK cells (×105) Number of NK cells (×103 per mg) Number of DC (×105) FSC FSC FSC CD8 CtrlEpA CtrlEpA CtrlEpA CD8+ T cells (%) Number of CD8+ T cells (×104 per mgĎ nsns ns nsns ns 40 IL-6 (pg/ml)) […]

Th9 cells = assay: Intracellular ATP assay, luminescence (Figure 4L); type: cell-based, mouse; conditions: result in words
Method: Intracellular adenosine triphosphate (ATP) levels were measured using a chemiluminescent ATP assay kit (Beyotime, catalog S0026) according to the manufacturer’s protocol. Briefly, cells were lysed and incubated with the luciferase-based detection reagent, and the resulting luminescent signal was detected using an Infinite M200 multimode microplate reader (TECAN). ATP concentrations were calculated based on a standard curve and normalized to cell number or protein content where applicable.

[1] = tested on: EpA-binding proteins in Th9 cell lysates; assay: EpA-biotin pulldown and LC-MS/MS (Figure 5A, S7A-B); design: species or system mouse; conditions: result in words
Method: Cell lysates from Th9 cells were incubated overnight at 4 °C with EpA-biotin or biotin alone (control). Streptavidin-conjugated magnetic beads were added to capture biotinylated compounds and their interacting proteins. After washing, the bead-bound proteins were resolved by SDS-PAGE and visualized by silver staining. Distinct protein bands were excised, subjected to in-gel enzymatic digestion, and analyzed via liquid chromatography–tandem mass spectrometry (LC-MS/MS) to identify putative EpA-binding proteins.

SREBP1 = assay: CETSA of SREBP1 (Figure 6D-E); type: binding; conditions: result in words
Method: Jurkat or 293T cells were washed twice with PBS and resuspended in PBS containing protease and phosphatase inhibitors. Cells were lysed by 3 cycles of liquid nitrogen snap-freezing and thawing at room temperature. […] One aliquot from each group was maintained at room temperature, and the others were heated for 3 minutes at 3 °C increments from 43°C to 64°C. Samples were then analyzed by SDS-PAGE and immunoblotting to assess protein thermal stability and compound binding.

[2] = spleens, individual mice, n = 4

## anteiso-C15 Leu7 surfactin [EpA]
Endogenous CD8+ T cells; LN, replicate 1
  Frequencies of endogenous CD8⁺ T cells in LN: 31.6
  Number of endogenous CD8⁺ T cells in LN: 49988.9
Endogenous CD8+ T cells; LN, replicate 2
  Frequencies of endogenous CD8⁺ T cells in LN: 27.8
  Number of endogenous CD8⁺ T cells in LN: 41201.1
Endogenous CD8+ T cells; LN, replicate 3
  Frequencies of endogenous CD8⁺ T cells in LN: 36.5
  Number of endogenous CD8⁺ T cells in LN: 21505.6
Endogenous CD8+ T cells; LN, replicate 4
  Frequencies of endogenous CD8⁺ T cells in LN: 27.9
  Number of endogenous CD8⁺ T cells in LN: 20877.6
Endogenous CD8+ T cells; LN, Figure S1G
  CD8 gate number: 36.5
Endogenous CD8+ T cells; Spleen, Figure S1F
  CD8 gate number: 34.5
Endogenous CD8+ T cells; Tumor, Figure S1H
  CD8 gate number: 54.0
Endogenous CD8+ T cells; lymph nodes, result in words
  endogenous CD8+ T cell frequency: modest frequency increase
  endogenous CD8+ T cell total numbers: unchanged total numbers
Endogenous CD8+ T cells; spleens and tumors, result in words
  endogenous CD8+ T cell frequency and number: markedly increased in both frequency and absolute number
Endogenous CD8+ T cells; [2]
  endogenous CD8 (%): 30.4% and 27.2% and 30.6% and 34.5%
  number of CD8 T cells: 3878238 and 3825743 and 3962312 and 3201124
Endogenous CD8+ T cells; tumors, individual mice, n = 4
  endogenous CD8 T cells (%): 54% and 34.7% and 36.8% and 55.2%
  number of endogenous CD8 T cells: 176 and 424 and 563 and 172
Th9 cells
  intracellular ATP levels: significantly elevated
[1]
  EpA pulldown, ZAP70: top candidate
SREBP1
  thermal stability of SREBP1: enhanced thermal stability of SREBP1
